Common to all, as to format: biochemical
Assay [1] has as its target T1, HER2 (human epidermal growth factor receptor-2) (Homo sapiens, UniProt P04626).
T1 construct: begins at amino acid 676 followed by the remainder of the HER2 cytoplasmic domain; polyhistidine (N)
Kind of assay: Kinase Selectivity Assay HER2. The conditions noted are these: Table 1; read-out: HER2 IC50. How it is done: (§1) Assays to test compound inhibition of other kinases were preformed using methods that measure the amount of phosphorylation of a biotinylated peptide substrate. Biotinylated peptide substrates were selected from the literature as appropriate for the enzyme being evaluated. […] Assay conditions vary slightly for each protein kinase, for example, insulin receptor kinase requires 10 mM MnCl2 for activity and Calmodulin-dependent protein kinase requires calmodulin and 10 mM CaCl2. These assay conditions are known in the art. The reaction mixture was dispensed into the wells of a streptavidin coated Flashplate and 1 μl drug stock in 100% DMSO was added to a 100 μl reaction volume resulting in a final concentration of 1% DMSO on the reaction. Enzyme was diluted in 50 mM Tris-HCl pH=8.0, 0.1% BSA and add to each well. The reaction was incubated for one hour at 30° C. in the presence of compound. After one hour the reaction mix was aspirated from the plate and the plate was washed with PBS containing 100 mM EDTA. The plate was read on a scintillation counter to determine ^33P-γ-ATP incorporated into the immobilized peptide. Test compounds were assayed in duplicate at 8 concentrations [100 uM, 10 uM, 1 uM, 100 nM, 10 nM, 1 nM, 100 pM, 10 pM]. A maximum and minimum signal for the assay was determined on each plate. The IC50 was calculated from the dose response curve of the percent inhibition of the maximum signal in the assay according to the formula [max signal—background/test compound signal—background (100)=% inhibition] by graphing the percent inhibition against the log concentration of test compound. Known inhibitor compounds appropriate for the kinase being assayed were also included on each plate.
(§2) CDK2 in complex with cyclin A is commercially available (Upstate Biotech, Lake Placid, N.Y.). The CDK4 complex was composed of a mouse CDK4 protein and a mouse Cyclin D1 protein (The mouse CDK4 protein was genetically fused to an N-terminal Flag-epitope tag and the mouse Cyclin D1 protein was fused with an N-terminal AU-1 epitope tag. The genes encoding these proteins were transferred to commercially available baculoviral vectors. The recombinant CDK4/D1 complex was then made by co-infecting commercially available insect cells with viruses carrying these two constructs). […] ERK-1 protein (Discontinued from Calbiochem). EGFR (epidermal growth factor receptor) is purified from human A431 cell membranes (Sigma, St. Louis, Mo., Cat.# E3641).

The target in assay [2] is T2, CDK1:Cyclin-B (Homo sapiens, UniProt P06493).
T2 construct: purchased New England Biolabs 6020; host or cells: insect cells
Kind of assay: CDK1 Screening Assay. The conditions noted are these: Table 1; read-out: CDK1 IC50. The procedure:
(§3) 70 μL of the kinase reaction mixture was dispensed into the well of a streptavidin coated FlashPlate™ (Cat. # SMP103, NEN, Boston, Mass.). Then 1 μL of test compound stock in 100% DMSO was added to the wells resulting in a final concentration of 1% DMSO in the reaction with a 100 μl final reaction volume. Next, CDK1:Cyclin-B protein was diluted in 50 mM Tris-HCl pH=8.0, 0.1% BSA at a concentration of 1 ng per μL and 30 μl (30 ng enzyme per test well) was added to each well to initiate the reaction. The reaction was incubated for one hour at 30° C. At the end of the 1-hour incubation, the reaction was terminated by aspirating the reaction mixture from the plate and washing the wells twice with PBS containing 100 mM EDTA. The histone-H1 biotinylated peptide substrate became immobilized on the Flashplate™ and the incorporation of ^33P-γ-ATP was measured by reading the plate on a scintillation counter. Inhibition of the enzymatic activity of CDK1 was measured by observing a reduced amount of ^33P-γ-ATP incorporated into the immobilized peptide.
Assays to test compound inhibition of other kinases were preformed using methods that measure the amount of phosphorylation of a biotinylated peptide substrate. Biotinylated peptide substrates were selected from the literature as appropriate for the enzyme being evaluated. […] Assay conditions vary slightly for each protein kinase, for example, insulin receptor kinase requires 10 mM MnCl2 for activity and Calmodulin-dependent protein kinase requires calmodulin and 10 mM CaCl2. These assay conditions are known in the art. The reaction mixture was dispensed into the wells of a streptavidin coated Flashplate and 1 μl drug stock in 100% DMSO was added to a 100 μl reaction volume resulting in a final concentration of 1% DMSO on the reaction. Enzyme was diluted in 50 mM Tris-HCl pH=8.0, 0.1% BSA and add to each well. The reaction was incubated for one hour at 30° C. in the presence of compound. After one hour the reaction mix was aspirated from the plate and the plate was washed with PBS containing 100 mM EDTA. The plate was read on a scintillation counter to determine ^33P-γ-ATP incorporated into the immobilized peptide. Test compounds were assayed in duplicate at 8 concentrations [100 uM, 10 uM, 1 uM, 100 nM, 10 nM, 1 nM, 100 pM, 10 pM]. A maximum and minimum signal for the assay was determined on each plate. The IC50 was calculated from the dose response curve of the percent inhibition of the maximum signal in the assay according to the formula [max signal—background/test compound signal—background (100)=% inhibition] by graphing the percent inhibition against the log concentration of test compound. Known inhibitor compounds appropriate for the kinase being assayed were also included on each plate. […]

The target of assay [3] is T3, VEGF-R (vascular endothelial growth factor receptor-2) (Rattus norvegicus, UniProt O08775).
T3 construct: polyhistidine (6xHIS) (N)
Kind of assay: VEGF-R Screening Assay. The settings on record: Table 1; read-out: VEGF-R IC50. The procedure:
as §3, with “a 100 μL final reaction” for “a 100 μl final reaction”, “volume. Next, soluble rat tyrosine kinase containing an N-terminal 6×HIS tag was diluted” for “volume. Next, CDK1:Cyclin-B protein was diluted”, “concentration of 5 ng per” for “concentration of 1 ng per”, “and 30 μL (150 ng enzyme” for “and 30 μl (30 ng enzyme”, “EDTA. The PLC1 biotinylated peptide” for “EDTA. The histone-H1 biotinylated peptide”, “activity of the VEGF-R was measured” for “activity of CDK1 was measured”
as §1, §2

The structures appear in SMILES notation.

T1 sequence (P04626 676-1255 limits assumed): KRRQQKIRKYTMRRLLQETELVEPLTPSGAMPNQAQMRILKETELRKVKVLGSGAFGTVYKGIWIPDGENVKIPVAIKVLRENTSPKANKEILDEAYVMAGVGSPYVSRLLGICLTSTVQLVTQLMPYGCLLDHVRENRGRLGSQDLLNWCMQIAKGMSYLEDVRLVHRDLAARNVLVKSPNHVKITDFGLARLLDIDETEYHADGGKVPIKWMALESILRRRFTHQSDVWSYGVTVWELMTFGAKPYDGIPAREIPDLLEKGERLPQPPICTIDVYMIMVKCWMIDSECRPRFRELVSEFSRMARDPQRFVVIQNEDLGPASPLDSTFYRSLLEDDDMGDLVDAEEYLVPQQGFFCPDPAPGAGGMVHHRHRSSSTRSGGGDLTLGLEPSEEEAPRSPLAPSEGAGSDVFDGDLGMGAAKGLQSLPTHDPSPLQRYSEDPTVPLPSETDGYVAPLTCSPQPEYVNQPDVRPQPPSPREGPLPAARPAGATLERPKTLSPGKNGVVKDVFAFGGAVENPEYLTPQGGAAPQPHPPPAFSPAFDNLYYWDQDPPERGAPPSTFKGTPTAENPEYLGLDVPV
T2 sequence (P06493 whole entry): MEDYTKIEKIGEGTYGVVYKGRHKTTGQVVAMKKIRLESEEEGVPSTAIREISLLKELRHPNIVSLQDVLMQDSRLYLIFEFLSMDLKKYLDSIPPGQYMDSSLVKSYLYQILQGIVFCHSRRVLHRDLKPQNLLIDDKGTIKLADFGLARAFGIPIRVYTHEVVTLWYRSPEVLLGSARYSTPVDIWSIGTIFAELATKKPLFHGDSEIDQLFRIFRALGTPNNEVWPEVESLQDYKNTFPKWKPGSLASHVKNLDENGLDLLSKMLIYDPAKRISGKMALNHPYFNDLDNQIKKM
T2 sequence (P14635 whole entry partner): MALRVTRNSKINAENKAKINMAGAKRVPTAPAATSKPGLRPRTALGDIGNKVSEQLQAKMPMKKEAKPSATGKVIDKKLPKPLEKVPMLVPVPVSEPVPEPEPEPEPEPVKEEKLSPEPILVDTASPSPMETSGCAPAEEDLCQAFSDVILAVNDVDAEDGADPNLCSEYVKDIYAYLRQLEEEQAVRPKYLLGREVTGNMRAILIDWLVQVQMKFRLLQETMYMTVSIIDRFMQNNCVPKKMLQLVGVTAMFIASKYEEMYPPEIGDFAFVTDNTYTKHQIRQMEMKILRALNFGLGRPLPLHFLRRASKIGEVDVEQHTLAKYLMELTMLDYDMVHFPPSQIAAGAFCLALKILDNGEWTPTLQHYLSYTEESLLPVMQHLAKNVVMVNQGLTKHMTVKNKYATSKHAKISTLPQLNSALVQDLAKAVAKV
T3 sequence (O08775 786-1343): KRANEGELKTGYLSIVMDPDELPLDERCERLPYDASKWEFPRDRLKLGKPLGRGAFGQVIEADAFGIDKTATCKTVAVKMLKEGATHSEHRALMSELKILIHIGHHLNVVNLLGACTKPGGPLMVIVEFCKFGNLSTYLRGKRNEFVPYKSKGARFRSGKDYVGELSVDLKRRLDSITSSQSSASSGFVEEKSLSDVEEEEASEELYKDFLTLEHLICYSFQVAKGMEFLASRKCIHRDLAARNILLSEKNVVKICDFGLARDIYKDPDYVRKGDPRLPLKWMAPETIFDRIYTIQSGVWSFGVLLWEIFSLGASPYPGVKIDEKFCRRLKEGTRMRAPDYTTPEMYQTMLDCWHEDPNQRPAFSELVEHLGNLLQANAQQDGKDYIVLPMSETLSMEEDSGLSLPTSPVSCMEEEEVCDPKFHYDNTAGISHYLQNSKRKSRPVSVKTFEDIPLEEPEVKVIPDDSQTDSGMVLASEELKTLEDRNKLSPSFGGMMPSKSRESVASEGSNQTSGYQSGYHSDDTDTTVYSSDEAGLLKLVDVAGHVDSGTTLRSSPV

The IC50 is the concentration that gives 50% inhibition. Consider `Nc1nc(Nc2ccc(S(N)(=O)=O)cc2)nn1C(=O)c1ccc(C#Cc2ccccc2)s1` [Cpd 53, 4-[[5-amino-1-[[5-(phenylethynyl)-2-thienyl]carbonyl]-1H-1,2,4-triazol-3-yl]amino]-benzenesulfonamide], for which the IC50 in assay [1], in assay [2] and in assay [3] was more than 1000 nM in each case.

`Nc1nc(Nc2ccc(S(N)(=O)=O)cc2)nn1C(=O)c1c(F)ccc([N+](=O)[O-])c1F` [Cpd 54, 4-[[5-amino-1-(2,6-difluoro-3-nitrobenzoyl)-1H-1,2,4-triazol-3-yl]amino]-benzenesulfonamide]: the values for the IC50 in assay [1], in assay [2] and in assay [3] were 6100 nM, 550 nM and 14000 nM, respectively.

As to `Cc1cccc(C)c1C(=O)n1nc(Nc2ccc(S(N)(=O)=O)cc2)nc1N` [Cpd 56, 4-[[5-amino-1-(2,6-dimethylbenzoyl)-1H-1,2,4-triazol-3-yl]amino]-benzenesulfonamide], the figures for the IC50 in assay [1], in assay [2] and in assay [3] were 4170 nM, 490 nM and 20000 nM, respectively.

As for `Nc1nc(Nc2ccc(S(=O)(=O)O)cc2)nn1C(=O)c1c(F)cccc1F` [Cpd 59, 4-[[5-amino-1-(2,6-difluorobenzoyl)-1H-1,2,4-triazol-3-yl]amino]-benzenesulfonic Acid], the IC50 in assay [1] turned out to be 7830 nM; in assay [2] it was 1540 nM; in assay [3] it was 920 nM.

In the case of `Cc1ccc(F)c(C(=O)n2nc(Nc3ccc(S(=O)(=O)O)cc3)nc2N)c1F` [Cpd 60, 4-[[5-amino-1-(2,6-difluoro-3-methylbenzoyl)-1H-1,2,4-triazol-3-yl]amino]-benzenesulfonic acid], the IC50 was 7460 nM in assay [1], 1370 nM in assay [2] and 890 nM in assay [3].

Take `Cc1ccc(F)c(C(=O)n2nc(Nc3ccc(N4CCN(C)CC4)cc3)nc2N)c1F` [Cpd 72, 1-(2,6-difluoro-3-methylbenzoyl)-N^3-[4-(4-methyl-1-piperazinyl)phenyl]-1H-1,2,4-triazole-3,5-diamine]: the IC50 in assay [1] amounted to 1490 nM; in assay [2], 1430 nM; in assay [3], 380 nM.

For `Cc1ccsc1C(=O)n1nc(Nc2ccc(N3CCN(C)CC3)cc2)nc1N` [Cpd 73, N^3-[4-(4-methyl-1-piperazinyl)phenyl]-1-[(3-methyl-2-thienyl)carbonyl]-1H-1,2,4-triazole-3,5-diamine], the IC50 in assay [1] was found to be 176 nM; in assay [2] it was 2200 nM; in assay [3], 29 nM.

Consider `Cc1cc(C)c(C(=O)n2nc(Nc3ccc(N4CCN(C)CC4)cc3)nc2N)s1` [Cpd 74, 1-[(3,5-dimethyl-2-thienyl)carbonyl]-N^3-[4-(4-methyl-1-piperazinyl)phenyl]-1H-1,2,4-triazole-3,5-diamine], for which the values for the half-inhibitory concentration (IC50) in assay [1], in assay [2] and in assay [3] were 62 nM, 460 nM and 21 nM, respectively.

In the case of `CCc1ccc(C(=O)n2nc(Nc3ccc(N4CCN(C)CC4)cc3)nc2N)s1` [Cpd 75, 1-[(5-ethyl-2-thienyl)carbonyl]-N^3-[4-(4-methyl-1-piperazinyl)phenyl]-1H-1,2,4-triazole-3,5-diamine], the figures for the IC50 in assay [1], in assay [2] and in assay [3] were 60 nM, 520 nM and 33 nM, respectively.

As to `CCc1ccc(C(=O)n2nc(Nc3ccc(S(=O)(=O)N(C)C)cc3)nc2N)s1` [Cpd 86, 4-[[5-amino-1-[(5-ethyl-2-thienyl)carbonyl]-1H-1,2,4-triazol-3-yl]amino]-N,N-dimethyl-benzenesulfonamide], the IC50 was determined as 413 nM in assay [1], 109 nM in assay [2] and 86.9 nM in assay [3].

With `Cc1ccsc1C(=O)n1nc(Nc2ccc(S(=O)(=O)N(C)C)cc2)nc1N` [Cpd 87, 4-[[5-amino-1-[(3-methyl-2-thienyl)carbonyl]-1H-1,2,4-triazol-3-yl]amino]-N,N-dimethyl-benzenesulfonamide], the IC50 in assay [1] was 436 nM; in assay [2], 217 nM; in assay [3], 16.8 nM.

Turning to `Cc1ccc(F)c(C(=O)n2nc(Nc3ccc(S(=O)(=O)N(C)C)cc3)nc2N)c1F` [Cpd 88, 4-[[5-amino-1-(2,6-difluoro-3-methylbenzoyl)-1H-1,2,4-triazol-3-yl]amino]-N,N-dimethyl-benzenesulfonamide], the results for the IC50 in assay [1], in assay [2] and in assay [3] were approximately 1000 nM, 313 nM and 965 nM, respectively.

`CN(C)S(=O)(=O)c1ccc(Nc2nc(N)n(C(=O)c3c(F)cccc3F)n2)cc1` [Cpd 89, 4-[[5-amino-1-(2,6-difluorobenzoyl)-1H-1,2,4-triazol-3-yl]amino]-N,N-dimethyl-benzenesulfonamide]: the IC50 in assay [1] is approximately 10000 nM; in assay [2], 710 nM; in assay [3], 598 nM.

As for `CCc1ccc(C(=O)n2nc(Nc3ccc(-n4ccnc4)cc3)nc2N)s1` [Cpd 90, 1-[(5-ethyl-2-thienyl)carbonyl]-N^3-[4-(1H-imidazol-1-yl)phenyl]-1H-1,2,4-triazole-3,5-diamine], the IC50 is approximately 100 nM in assay [1], approximately 1000 nM in assay [2] and approximately 100 nM in assay [3].

`Cc1ccsc1C(=O)n1nc(Nc2ccc(-n3ccnc3)cc2)nc1N` [Cpd 91, N^3-[4-(1H-imidazol-1-yl)phenyl]-1-[(3-methyl-2-thienyl)carbonyl]-1H-1,2,4-triazole-3,5-diamine]: the IC50 amounted to 223 nM in assay [1], 335 nM in assay [2] and 73.6 nM in assay [3].

With `Nc1nc(Nc2ccc(-n3ccnc3)cc2)nn1C(=O)c1c(F)cccc1F` [Cpd 93, 1-(2,6-difluorobenzoyl)-N^3-[4-(1H-imidazol-1-yl)phenyl]-1H-1,2,4-triazole-3,5-diamine], the IC50 is approximately 1000 nM in assay [1], 452 nM in assay [2] and 727 nM in assay [3].
